According to ChEMBL document CHEMBL3091435, “Protein-Ligand Interactions: Thermodynamic Effects Associated with Increasing the Length of an Alkyl Chain” (ACS Med Chem Lett, 2013):
Square brackets hold non-standard residues; d marks the D form. Peptide text beside a SMILES is read from it. pY = N[C@@H](Cc1ccc(OP(=O)(O)O)cc1)C(=O)O; Ahp(2) = CCCCC[C@H](N)C(=O)O; Nle = CCCC[C@H](N)C(=O)O; Nva = CCC[C@H](N)C(=O)O; Abu = CC[C@H](N)C(=O)O

Biological target: Growth factor receptor-bound protein 2 (Homo sapiens) (UniProt P62993)
Test: Binding affinity to Grb2 SH2 domain (53 to 163) (unknown origin) expressed in Escherichia coli SG13009 by ITC analysis

| Ka | SMILES |
| --- | --- |
| 6.1 ×10⁵ /M | C/C=C\[C@H](NC(=O)[C@H](Cc1ccc(OP(=O)(O)O)cc1)NC(C)=O)C(=O)N[C@@H](CC(N)=O)C(N)=O |
| 2.2 ×10⁵ /M | CC(=O)N[C@@H](Cc1ccc(OP(=O)(O)O)cc1)C(=O)N[C@@H](C)C(=O)N[C@@H](CC(N)=O)C(N)=O (Ac-[pY]-Ala-Asn-NH2) |
| 8.6 ×10⁵ /M | CC[C@H](NC(=O)[C@H](Cc1ccc(OP(=O)(O)O)cc1)NC(C)=O)C(=O)N[C@@H](CC(N)=O)C(N)=O (Ac-[pY]-[Abu]-Asn-NH2) |
| 7.8 ×10⁵ /M | CCCCC[C@H](NC(=O)[C@H](Cc1ccc(OP(=O)(O)O)cc1)NC(C)=O)C(=O)N[C@@H](CC(N)=O)C(N)=O (Ac-[pY]-[Ahp(2)]-Asn-NH2) |
| 8.4 ×10⁵ /M | CCCC[C@H](NC(=O)[C@H](Cc1ccc(OP(=O)(O)O)cc1)NC(C)=O)C(=O)N[C@@H](CC(N)=O)C(N)=O (Ac-[pY]-[Nle]-Asn-NH2) |
| 7.6 ×10⁵ /M | CCC[C@H](NC(=O)[C@H](Cc1ccc(OP(=O)(O)O)cc1)NC(C)=O)C(=O)N[C@@H](CC(N)=O)C(N)=O (Ac-[pY]-[Nva]-Asn-NH2) |
